Measurements reported in patent publication US20170224731A1, “METHOD OF PRODUCING LEUKOCYTES USING PTPN2 INHIBITION FOR ADOPTIVE CELL TRANSFER” (MONASH UNIVERSITY, priority 2014, published 2017).

Tests used:
[1] = test system: CD8+ human blood lymphocytes; assay: Human PBMC stimulation with plate-bound α-CD3, T cell activation (CD69, CD154) by flow cytometry (FIG. 16); format: cell-based; conditions: human PBMCs, plate-bound α-CD3 (1.25 and 2.5 μg/ml) for 24 h
Method: FIG. 16. […] Freshly isolated human PBMCs (2×10^6) were stimulated with plate-bound α-CD3 (1.25 and 2.5 μg/ml) for 24 h. PBMCs were harvested and stained with fluorochrome-conjugated antibodies for CD45RA, CD8, CD69 and CD154 and T cell activation was monitored by flow cytometry. Representative CD8 versus CD69 and CD154 plots (numbers in outlined areas are the relative numbers in the gate) are shown.
(§1) Human blood was collected in 15 ml glass tubes containing Ficoll® gradient (GE Healthcare Life Sciences, Amersham, UK). Peripheral blood […] (PBMCs) were recovered by centrifugation (2200×rpm, 20 min at room temperature). PBMCs were incubated with PTPN2 inhibitor (compound 8) in serum-free RPMI 1640 for two hours at 37° C. and stimulated with plate-bound human α-CD3 (5 μg/ml; clone OKT-3) for 24 h. Cells were harvested and stained with fluorochrome-conjugated antibodies against α-CD8, α-CD45RA, α-CD154 and α-CD69 and analysed by flow cytometry to determine their activation status. To monitor T cells proliferation Calibrite Beads™ were added to the wells before cells were harvested.
Freshly isolated human PBMCs (2×10^6) were stimulated with plate-bound α-CD3 (1.25 and 2.5 μg/ml) for 24 h. PBMCs were harvested and stained with fluorochrome-conjugated antibodies for CD45RA, CD8, CD69 and CD154 and T cell activation was monitored by flow cytometry. […]

[2] = test system: CD8+ human blood lymphocytes; assay: Human PBMC stimulation with plate-bound α-CD3, CD8+ T cell proliferation by flow cytometry with Calibrite Beads (FIG. 19); format: cell-based; conditions: human PBMCs, plate-bound α-CD3 for 48 h and 72 h, versus vehicle control
Method: FIG. 19. […] Freshly isolated human PBMCs (2×10^6) were stimulated with plate-bound α-CD3 for (A) 48 h and (B) 72 h, in the presence of vehicle control or the PTPN2 inhibitor, compound 8 (as described herein). PBMCs were harvested and stained with fluorochrome-conjugated α-CD8. Calibrite Beads™ were added and T cell proliferation was monitored by flow cytometry. Results shown are means±SD for the indicated number of replicates.
as §1
Freshly isolated human PBMCs (2×10^6) were stimulated with plate-bound α-CD3 for (A) 48 h and (B) 72 h, in the presence of vehicle control or the PTPN2 inhibitor, compound 8 (as described herein). […] Calibrite Beads™ were added and T cell proliferation was monitored by flow cytometry. […]

[3] = test system: CD8+ naïve (CD62LhiCD44lo) splenic T cells; assay: Activation of naive CD8+ splenic T cells with plate-bound αCD3/CD28, surface markers by flow cytometry (FIG. 11); format: cell-based, C57BL/6 mice; conditions: plate-bound αCD3/CD28 for 48 h, versus vehicle
Description: FIG. 11. […] T cells were stained with fluorochrome-conjugated antibodies to assess CD44, CD62L, IL-2Ra (CD25 subunit) and CD69 surface levels and mean fluorescence intensity (MFI) was monitored by flow cytometry.
T cells were stained with fluorochrome-conjugated antibodies to assess CD44, CD62L, IL-2Rα (CD25 subunit) and CD69 surface levels and mean fluorescence intensity (MFI) was monitored by flow cytometry.

[4] = test system: Her-2 specific CAR T cells; assay: Her-2-specific CAR T cells incubated with 24JK-Her-2 sarcoma cells, secreted IFNγ by ELISA (FIG. 20); format: cell-based, mouse; conditions: with 24JK-Her-2, 24JK or medium alone, versus vehicle control
Method: FIG. 20. […] Her-2-specific CAR T cells were incubated with Her-2 expressing 24JK sarcoma cells (24JK-Her-2) or 24JK sarcoma cells (24JK) or medium alone, in the presence of vehicle control or the PTPN2 inhibitor, compound 8 (described herein). T cell activation was assessed by monitoring for secreted IFNγ by ELISA (Mouse IFNγELISA Set, BD OptEIA™) according to the supplier's specifications. Tests were performed in triplicates (±SD).
Her-2-specific CAR T cells were incubated with Her-2 expressing 24JK sarcoma cells (24JK-Her-2) or 24JK sarcoma cells (24JK) or medium alone, in the presence of vehicle control or the PTPN2 inhibitor, compound 8 (described herein). T cell activation was assessed by monitoring for secreted IFNγ by ELISA (Mouse IFNγELISA Set, BD OptEIA™) according to the supplier's specifications. Tests were performed in triplicates (±SD).

[5] = test system: Naive (CD62LhiCD44lo) CD8+ LN T cells; assay: Stimulation of naive CD8+ LN T cells with anti-CD3/anti-CD28 ± PTPN2 inhibitor, MFI by flow cytometry (FIG. 14); format: cell-based, C57BL/6 mice; conditions: anti-CD3 (5 μg/ml) and anti-CD28 (5 μg/ml) for 60 h, inhibitor at various concentrations
Method: FIG. 14. […] Naive (CD62LhiCD44lo) CD8+ LN T cells (1×105) from C57BL/6 mice were stimulated with plate-bound anti-CD3 (5μg/ml) and anti-CD28 (5μg/m1) for 60 h±PTPN2 inhibitor at various concentrations. Cells were harvested and stained with fluorochrome-conjugated antibodies for CD44, CD69, CD25 and CD62L and mean fluorescence intensity (MFI) analyzed by flow cytometry. Results shown are means±SD for the indicated number of replicates.
CD8^+CD62L^hiCD44^lo naïve LN T cells (1×10^5/well) were stimulated in 96-well round-bottom plates with plate-bound α-CD3 (5 μg/ml) and a-CD28 (5 μg/ml) for 60 h. PTPN2 inhibitor was added twice daily to the culture. To determine the activation status cells were harvested, stained with fluorochrome-conjugated antibodies against α-CD25, α-CD44, α-CD62L and α-CD69 and analysed by flow cytometry.
In FIG. 14, the results of naive)(CD62L^hiCD44^loCD8+ LN T cells (1×105) from C57BL/6 mice that were stimulated with plate-bound anti-CD3 (5 μg/ml) and anti-CD28 (5 μg/ml) for 60 h±PTPN2 inhibitor (compound 8) at various concentrations is shown. Cells were harvested and stained with fluorochrome-conjugated antibodies for CD44, CD69, CD25 and CD62L and mean fluorescence intensity (MFI) analyzed by flow cytometry. Results shown are means±SD for the indicated number of replicates.

murine CD8+ T cells = assay: PTPN2 siRNA knock down in splenocytes, CD8+ T cell numbers after α-CD3/α-CD28 stimulation (FIG. 17); format: cell-based, C57BL/6 mice; conditions: 30 nM, 100 nM and 300 nM siRNA, α-CD3/α-CD28 (5 μg/ml each) for 48 h, versus GFP siRNA
Method: FIG. 17. Knock down of PTPN2 using siRNAs in murine CD8+ T cells leads to enhanced TCR-mediated T cell responses. Splenocytes (1×10^7) from C57BL/6 mice were transfected overnight with 100 nM GFP siRNA or 30 nM, 100 nM and 300 nM PTPN2 siRNA or 30 nM BLOCK-iT™ Fluorescent Oligo using the Amaxa Mouse T cell Nucleofactor Kit. (A) Transfection efficiency of CD8^+ T cells was monitored with BLOCK-iT™ Fluorescent Oligo (Fluor.Oligo) by flow cytometry. (B) Transfected splenocytes were stimulated with plate-bound α-CD3 (5 μg/ml) and α-CD28 (5 μg/ml) for 48 h and stained with fluorochrome-conjugated α-CD8. CD8^+ T cell numbers were quantified with Calibrite Beads™ by flow cytometry. Results shown are means±SD for the indicated number of replicates.
Ptpn2 was knocked down transiently in primary murine T cells using Ptpn2 ([…], SEQ ID NO: 14); Dharmacon Thermo Scientific, Waltham, Mass.); green fluorescent protein (GFP; CAAGCUGACCCUGAAGUUCdTdT; Dharmacon Thermo Scientific, Waltham, Mass.) siRNA was used as a control. […] T cell numbers were monitored by flow cytometry. For quantification Calibrite Beads (BD Biosciences) were added to the wells before cells were harvested.
Splenocytes (1×10^7) from C57BL/6 mice were transfected overnight with 100 nM GFP siRNA or 30 nM, 100 nM and 300 nM PTPN2 siRNA using the Amaxa Mouse T cell Nucleofactor Kit. […] CD8+ T cell numbers were quantified by flow cytometry. […]

With CCc1ccc(C(=O)NCCCCC(NC(=O)C(Cc2ccc(C(F)(F)P(=O)(O)O)cc2)NC(=O)C(Cc2ccccc2)NC(=O)COC2CC(C)CCC2C(C)C)C(N)=O)cc1 (stereo not drawn) [compound 8] the “TCR-mediated T cell activation (CD69, CD154)” value [1] was “enhanced TCR-mediated T cell activation”, the “TCR-mediated T cell proliferation” value [2] was “enhanced TCR-mediated T cell proliferation” and the “polyclonal CD8+ T cell activation (CD44, CD62L, CD25, CD69 surface levels, MFI)” value [3] was “enhances polyclonal CD8^+ T cell activation ex vivo”. The “tumour-specific activation of Her-2 specific CAR T cells (secreted IFNγ)” value [4] was “enhances the tumour-specific activation of Her-2 specific CAR T cells ex vivo” and the “activated phenotype of naive CD8+ T cells (CD44, CD69, CD25, CD62L MFI)” value [5] was “stimulates naive CD8+ T cells to an activated phenotype”.

In the case of “AAGCCCAUAUGAUCACAGUCG (listed as RNA, chemistry not given here) [PTPN2 siRNA, siRNA used to knock down Ptpn2 transiently in primary murine T cells (Dharmacon)]”, the “TCR-mediated T cell responses (CD8+ T cell number)” value (murine CD8+ T cells) was “dose response increase in cell number”.
